# Patent US7332482B2, “Method for treating benign prostatic hyperplasia” (BioXell S.p.A., priority 2003, dated 2008)
# Entries after “also recorded” stand apart in the source; their conditions may differ.
# Key:
# BPH cells = test: BPH cell proliferation assay; format: cell-based, human; conditions: 48 h
# Method: Human BPH cells, prepared, maintained and used as previously described in Crescioli C, et al. Journal of Clinical and Endocrinology Metabolism (2000) 85 p 2576-2583, were obtained from prostate tissues derived from 5 patients, who underwent suprapubic adenomectomy for BPH, after informed consent and approval by the Local Ethical Committee.
# For all cell proliferation assay, 4×10^4 BPH cells were seeded onto 12-well plates in their growth medium, starved in red- and serum-free medium containing 0.1% BSA for 24 h, and then treated with specific stimuli for 48 h. Cells in phenol red- and serum-free medium containing 0.1% BSA were used as controls. Thereafter, cells were trypsinized, and each experimental point was derived from hemocytometer counting, averaging at least six different fields for each well, as previously reported (see Crescioli C, et al. Journal of Clinical and Endocrinology Metabolism (2000) 85 p 2576-2583). […] Growth assays were also carried out using a fixed concentration of androgens (10 nM) with or without Compound A (1 nM, 10 nM) or the anti-androgens finasteride (F, 1 nM) and cyproterone acetate (Cyp, 100 nM). Growth assays were also performed using a fixed concentration of T (10 nM) or GFs (10 ng/ml) with or without Compound A (10 nM). In the same experiment, each experimental point was repeated in triplicate or quadruplicate and experiments were performed 3 times. Results are expressed as % variation (mean±SEM) over the maximal T or GF-induced stimulation.
# rat ventral prostate = test: Clusterin expression (Northern, immunohistochemistry) and TUNEL in rat ventral prostate; format: in vivo
# Method: Total RNA was extracted using RNAFast from Molecular System (San Diego, Calif.). Blotting, labelling, hybridization conditions and probes (rat clusterin 1.5 Kb full-length cDNA and GAPDH 1.2 Kb full-length cDNA) were performed according to the reported procedures (Bettuzzi et al, Biochemical Journal, (1989), 257, p 293-296 and Marinelli et al, Biochemistry and Cell Biology, (1994), 72, p 515-521). Quantitation of the autoradiograms was obtained by densitometric scanning using an LKB Ultrascan XL densitometer.
# All the cryostatic sections obtained from controls and treated rats were processed in parallel as previously described (Astancolle et al, Journal of Endocrinology, (2000), 167, p 197-204). For every experimental condition, 3 alternate sections from 3 different rat prostates were examined. […] Counterstaining was performed with haematoxylin, and cover slips were mounted with Eukitt (O. Kindler GmbH & Co, Germany). Digital high-magnification colour images were acquired by a CCD camera through the microscope.
# DNA fragmentation in prostate cryostatic sections, assessed by terminal deoxynucleotidyl transferase (TdT)-mediated dUTP nick end-labelling (TUNEL), was performed using the In Situ Cell Death Detection Kit (POD, Roche) as recommended by the manufacturer. TUNEL positive apoptotic nuclei were documented by digital high-magnification colour images acquired by a CCD camera through the microscope. Counterstaining was performed with eosin, and cover slips were mounted with Eukitt (O Kindler GmbH & Co, Germany).
# prostate = test: 9-month toxicity study in male beagle dogs (prostate weight); format: in vivo, dog
# Method: A 9-month toxicity study was carried out in four groups of male beagle dogs, which were treated by daily oral gavage with 0.5 μg, 1.5 μg and 5 μg/kg body weight/day of Compound A (in vehicle Miglyol 812) or with vehicle alone. This treatment was followed by a 2-month recovery period for the group receiving the highest dose, 5 μg, after which prostate weights was measured.
# human bladder cells = test: Bladder cell growth, basal and testosterone-stimulated; format: cell-based
# AR = molecular target: T1, AR (Homo sapiens, UniProt P10275); test: [3H]R1881 binding assay on cytosol fractions of BPH fragments; set-up: from tissue; host or cells: human BPH prostatic tissue, cytosol fraction
# T1 sequence (P10275 1-920): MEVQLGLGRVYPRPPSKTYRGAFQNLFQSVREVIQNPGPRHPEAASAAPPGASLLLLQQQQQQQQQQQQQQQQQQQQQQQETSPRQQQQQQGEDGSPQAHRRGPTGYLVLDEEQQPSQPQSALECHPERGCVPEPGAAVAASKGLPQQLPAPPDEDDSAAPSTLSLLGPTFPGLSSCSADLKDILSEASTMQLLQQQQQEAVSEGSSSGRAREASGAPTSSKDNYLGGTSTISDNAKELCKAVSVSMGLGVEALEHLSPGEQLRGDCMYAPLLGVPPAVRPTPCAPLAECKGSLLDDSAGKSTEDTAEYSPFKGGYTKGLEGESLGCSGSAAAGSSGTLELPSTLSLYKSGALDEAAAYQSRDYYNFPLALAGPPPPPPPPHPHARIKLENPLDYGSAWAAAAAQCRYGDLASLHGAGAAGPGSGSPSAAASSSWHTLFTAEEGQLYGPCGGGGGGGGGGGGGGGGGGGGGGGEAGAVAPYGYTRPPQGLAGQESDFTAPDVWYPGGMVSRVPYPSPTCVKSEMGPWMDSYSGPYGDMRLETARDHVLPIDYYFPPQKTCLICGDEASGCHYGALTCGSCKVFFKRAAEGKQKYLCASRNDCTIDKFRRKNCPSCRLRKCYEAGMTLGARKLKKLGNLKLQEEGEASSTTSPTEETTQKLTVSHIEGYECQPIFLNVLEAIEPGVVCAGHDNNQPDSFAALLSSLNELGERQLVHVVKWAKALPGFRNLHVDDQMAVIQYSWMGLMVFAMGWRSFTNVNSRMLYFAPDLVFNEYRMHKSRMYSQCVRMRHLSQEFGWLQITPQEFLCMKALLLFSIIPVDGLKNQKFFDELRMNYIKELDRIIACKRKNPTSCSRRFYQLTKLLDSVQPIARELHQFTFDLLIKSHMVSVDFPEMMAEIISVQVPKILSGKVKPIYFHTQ
# Method: Prostatic tissues for binding assay were obtained from patients who underwent suprapubic adenomectomy for BPH. No pharmacological treatment was performed in the 3 months preceding surgery. After surgery, the tissues were immediately placed in liquid nitrogen and stored at −80° C. until processing.
# Protein content was determined by the known method of Bradford, using BSA as a standard.
smiles,measurement,setting,value
"C=C1/C(=C\C=C2/CCC[C@]3(C)C([C@@H](C)C/C=C/C(O)(CC)CC)=CC[C@@H]23)C[C@@H](O)C[C@@H]1F [Compound A, 1-alpha-fluoro-25-hydroxy-16,23E-diene-26,27-bishomo-20-epi-cholecalciferol]",effect on growth of androgen-unstimulated BPH cells,BPH cells; Compound A 1 nM,reduced growth
same,effect on DHT-stimulated BPH cell proliferation,"BPH cells; DHT 10 nM, Compound A 1 nM, F 1 nM, Cyp 100 nM",antagonized; also recorded: significantly blocked
same,effect on T-stimulated BPH cell proliferation,"BPH cells; T 10 nM, Compound A 1 nM, F 1 nM, Cyp 100 nM",antagonized; also recorded: significantly blocked
same,"Imax, inhibition of T- or GF-stimulated BPH cell growth","BPH cells; T 10 nM, KGF or Des(1-3)IGF-I 10 ng/ml",66.6±7.3%
same,maximal inhibition (Imax) of BPH cell growth,"BPH cells; unstimulated BPH cells, Imax shared by both secosteroids",43±1%
same,DNA fragmentation / apoptosis in ventral prostate (TUNEL),"rat ventral prostate; castrated T-supplemented rats, 100 and 300 μg/Kg, 9 administrations",induced an evident nuclear fragmentation in epithelial and stromal cells; also recorded: induced massive apoptosis in the majority of epithelial and stromal cells
same,"clusterin staining and apoptosis in prostate (immunohistochemistry, TUNEL)","rat ventral prostate; intact adult rats, Compound A 10, 30, 100 μg/Kg, finasteride 40 mg/Kg",induced clusterin expression; also recorded: dose-dependently stained for clusterin
same,clusterin mRNA expression in ventral prostate (Northern),"rat ventral prostate; intact rats, one month, 30 and 100 μg/Kg",induced a sustained increase
same,clusterin mRNA expression in ventral prostate (Northern),"rat ventral prostate; orchidectomized T-supplemented rats, Compound A 300 and 100 μg/Kg, F 40 mg/Kg",partially blunted the T-induced down-regulation of clusterin gene expression
same,prostate weight after recovery,"prostate; 5 μg/kg/day 9 months then 2-month recovery, vs vehicle",reduction of prostate weight
same,toxicity data,prostate; 9 months daily oral gavage,entirely favourable toxicity data
same,prostate weight at end of treatment,"prostate; 9 months daily oral gavage, 0.5, 1.5, 5 μg/kg/day, vs vehicle",lower prostate weight; also recorded: clear reduction of prostate weight
same,inhibition of basal and testosterone-stimulated growth of bladder cells,human bladder cells,effective in inhibiting
same,effect on bladder cell growth compared with finasteride,"human bladder cells; T 10 nM, F 1 nM",significantly greater than that of the anti-androgen finasteride
same,Kd,AR,> 100 µM
same,competition for [3H]-R1881 binding,"AR; human BPH homogenates, 10^−10-10^−4 M",did not compete
